Reference: the supplement of paper PMC10307832

What was measured:
Test in all cases: relative viability (nuclei count vs DMSO), 5 days (fraction); higher = more cells survive
Ispinesib + Navitoclax = compound: Cc1ccc(C(=O)N(CCCN)[C@@H](c2nc3cc(Cl)ccc3c(=O)n2Cc2ccccc2)C(C)C)cc1 [Ispinesib] + CC1(C)CCC(c2ccc(Cl)cc2)=C(CN2CCN(c3ccc(C(=O)NS(=O)(=O)c4ccc(N[C@H](CCN5CCOCC5)CSc5ccccc5)c(S(=O)(=O)C(F)(F)F)c4)cc3)CC2)C1 [Navitoclax] (partner 0.5 µM)
Outline: (§1)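 Relative viability divides the nuclei count in treated wells by that in vehicle wells. Lung cancer cell lines were seeded in 1536-well plates, dosed by pin tool the next day, and fixed and stained after 5 days in one step with final 0.05% Triton X-100, 1% formaldehyde and 1 ug/ml Hoechst. Dosing was a single drug or a fixed anchor-drug dose plus five library-drug doses (not always all listed) in √10 steps, and values are medians of duplicate plates imaged at 4×.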

Ispinesib + Linsitinib = compound: Cc1ccc(C(=O)N(CCCN)[C@@H](c2nc3cc(Cl)ccc3c(=O)n2Cc2ccccc2)C(C)C)cc1 [Ispinesib] + C[C@]1(O)C[C@@H](c2nc(-c3ccc4ccc(-c5ccccc5)nc4c3)c3c(N)nccn32)C1 [Linsitinib] (partner 1 µM)
Outline: as §1

Ispinesib + Dasatinib = compound: Cc1ccc(C(=O)N(CCCN)[C@@H](c2nc3cc(Cl)ccc3c(=O)n2Cc2ccccc2)C(C)C)cc1 [Ispinesib] + Cc1nc(Nc2ncc(C(=O)Nc3c(C)cccc3Cl)s2)cc(N2CCN(CCO)CC2)n1 [Dasatinib] (partner 0.075 µM)
Outline: as §1

Ispinesib + Phenformin = compound: Cc1ccc(C(=O)N(CCCN)[C@@H](c2nc3cc(Cl)ccc3c(=O)n2Cc2ccccc2)C(C)C)cc1 [Ispinesib] + N=C(N)NC(=N)NCCc1ccccc1 [Phenformin] (partner 250 µM)
Outline: as §1

Cell Line | relative viability (Ispinesib + Navitoclax; first compound 0.001 µM) | relative viability (Ispinesib + Navitoclax; first compound 0.003162 µM) | relative viability (Ispinesib + Navitoclax; first compound 0.01 µM) | relative viability (Ispinesib + Navitoclax; first compound 0.03162 µM) | relative viability (Ispinesib + Navitoclax; first compound 0.1 µM) | relative viability (Ispinesib + Linsitinib; first compound 0.001 µM) | relative viability (Ispinesib + Linsitinib; first compound 0.003162 µM) | relative viability (Ispinesib + Linsitinib; first compound 0.01 µM) | relative viability (Ispinesib + Linsitinib; first compound 0.03162 µM) | relative viability (Ispinesib + Linsitinib; first compound 0.1 µM) | relative viability (Ispinesib + Dasatinib; first compound 0.001 µM) | relative viability (Ispinesib + Dasatinib; first compound 0.003162 µM) | relative viability (Ispinesib + Dasatinib; first compound 0.01 µM) | relative viability (Ispinesib + Dasatinib; first compound 0.03162 µM) | relative viability (Ispinesib + Dasatinib; first compound 0.1 µM) | relative viability (Ispinesib + Phenformin; first compound 0.001 µM) | relative viability (Ispinesib + Phenformin; first compound 0.003162 µM) | relative viability (Ispinesib + Phenformin; first compound 0.01 µM) | relative viability (Ispinesib + Phenformin; first compound 0.03162 µM) | relative viability (Ispinesib + Phenformin; first compound 0.1 µM)
SK-MES-1 | 1.47 | 1.2 | 1.14 | 0.922 | 0.227 | 1.1 | 1.09 | 1.21 | 1.11 | 0.261 | 0.326 | 0.373 | 0.384 | 0.165 | 0.231 | 0.753 | 0.714 | 0.761 | 0.193 | 0.186
NCI-H2087 | 0.976 | 1.07 | 1.23 | 0.933 | 0.156 | 1.02 | 0.979 | 1.02 | 0.459 | 0.167 | 0.998 | 0.841 | 0.963 | 0.39 | 0.117 | 0.492 | 0.473 | 0.441 | 0.32 | 0.134
BEN | 0.0635 | 0.0753 | 0.0591 | 0.0599 | 0.053 | 1 | 1.12 | 1.06 | 0.682 | 0.32 | 0.36 | 0.371 | 0.307 | 0.248 | 0.141 | 0.243 | 0.27 | 0.252 | 0.27 | 0.203
NCI-H3122 | 1.1 | 1.06 | 1.06 | 1.07 | 0.199 | 1.07 | 1.09 | 1.07 | 1.13 | 0.251 | 0.944 | 0.917 | 0.973 | 0.759 | 0.127 | 0.384 | 0.408 | 0.856 | 0.197 | 0.108
LCLC-97TM1 | 0.433 | 0.489 | 0.52 | 0.557 | 0.157 | 0.205 | 0.152 | 0.175 | 0.262 | 0.169 | 0.86 | 0.825 | 1.03 | 0.631 | 0.221 | 0.356 | 0.435 | 0.486 | 0.336 | 0.129
NCI-H2228 | 0.896 | 0.896 | 1.37 | 0.878 | 0.187 | 0.839 | 0.607 | 1 | 0.803 | 0.338 | 0.557 | 0.522 | 0.665 | 0.211 | 0.2 | 0.283 | 0.312 | 0.321 | 0.126 | 0.145
COR-L23 | 1.06 | 1.15 | 1.34 | 0.192 | 0.124 | 1.12 | 0.946 | 1 | 0.161 | 0.16 | 0.564 | 0.498 | 0.474 | 0.0917 | 0.172 | 0.437 | 0.444 | 0.448 | 0.123 | 0.133
EMC-BAC-2 | 1.2 | 1.35 | 1.28 | 1.08 | 0.758 | 0.831 | 0.847 | 0.858 | 0.614 | 0.487 | 0.354 | 0.236 | 0.351 | 0.257 | 0.19 | 0.557 | 0.545 | 0.534 | 0.372 | 0.209
